# Entries after “also recorded” stand apart in the source; their conditions may differ.
# Tested on: Caco-2 cells
# Test: BrdU cell proliferation ELISA, Caco-2
# Type: cell-based, human
# Details: up to 1,000 μM, 24 h + 24 h
# Experimental: Cytotoxicological analysis of ZED1227 was performed using Huh7 (human liver carcinoma, CLS Cell Lines Service GmbH, Eppelheim, Germany) and Caco-2 cells (human epithelial colorectal adenocarcinoma, Sigma Aldrich, Taufkirchen, Germany) with respect to the effect on proliferation and viability, according to the assay protocols provided by the manufacturers of the respective kits. The Cell Proliferation ELISA (BrdU, colorimetric) was purchased from Roche (Mannheim, Germany), whereas the Cell Proliferation and Cytotoxicity Assay EZ4U was purchased from Biomedica (Vienna, Austria). Briefly, Caco-2 cells (in MEM with 1% non-essential amino acid solution, both Sigma Aldrich (Taufkirchen, Germany), 10% fetal bovine serum, 2 mM L-glutamine, 100 U/mL penicillin–streptomycin, all from Gibco) or Huh7 cells (in DMEM low glucose, Sigma Aldrich (Taufkirchen, Germany), 10% fetal bovine serum, 1 mM sodium pyruvate, 100 U/mL penicillin–streptomycin, all from Gibco) were cultured in 96 well plates, using 2.5 μg/mL cycloheximide and 0.2 μg/mL camptothecin-treated cells as positive control. In the 5-bromo-2′-deoxyuridine (BrdU) assay (determination of cell proliferation), the cells were incubated with ZED1227 working solution (1% DMSO in culture medium) up to a concentration of 1,000 μM for 24 h, followed by addition of BrdU into the culture medium and further culturing for 24 h. […]
compound,measurement,value
"CCC(CC)CNC(=O)Cn1cccc(NC(=O)[C@H](CC/C=C/C(=O)OC)NC(=O)c2cncn2C)c1=O [ZED1227, (S,E)-Methyl 7-(1-(2-(2-ethylbutylamino)-2-oxoethyl)-2-oxo-1,2-dihydropyridin-3-ylamino)-6-(1-methyl-1H-imidazole-5-carboxamido)-7-oxohept-2-enoate]","Cytotoxicity: Proliferation, Caco-2 cells","nor did it affect cell proliferation rates; also recorded: no effect up to 1,000 μM no effect up to 1,000 μM no effect up to 1,000 μM no effect up to 1,000 μM"

# Source: PMC9139979, “Features of ZED1227: The First-In-Class Tissue Transglutaminase Inhibitor Undergoing Clinical Evaluation for the Treatment of Celiac Disease” (Cells, 2022)
